From US20210106542A1, “COMPOSITION AND METHOD FOR INHIBITING PLATELET AGGREGATION” (priority 2015, published 2021)

Legend:
thrombin production = assay: Thrombin generation test; assay type: biochemical, human
Method: Thrombin generation test, a clinical test to determine if a drug impedes blood clotting, was conducted as described below. […] The results are shown in Table 11, below, and in FIG. 5. The RQN combination decreased thrombin in a manner similar to other commonly used anti-platelet drugs, further indicating the safety of the RQN combination.

SAPs = assay: SAP reduction compared to known anti-platelet drugs; assay type: cell-based, human
Method: SAPs were analyzed in the presence of resveratrol, quercetin, and naltrexone and compared to known anti-platelet drugs. Student's t-test with Turkey Post Hoc correction was used to determine significance levels comparing untreated to drug treated samples. The appropriate doses for other anti-platelet drugs were established by routine clinical use.

[1] = tested on: control subject platelets; assay: SAP levels at varying doses of R, Q, N alone or in combination, control subject; assay type: cell-based, human; settings: control patient
Method: (§1) Resveratrol, quercetin and naltrexone were tested in vitro using 100-microliter assay solutions with (A) a control subject platelets and (B) a POAG subject platelets. A marked reduction in SAPs at 1 μM resveratrol, 1 μM quercetin, 1 μM naltrexone in both the control subject platelets and the POAG patient's platelets was observed, representing a synergistic decrease as compared to the compounds alone.

POAG subject platelets = assay: SAP levels at varying doses of R, Q, N alone or in combination, POAG subject; assay type: cell-based, human; settings: POAG patient
Method: as §1

[2] = cited from earlier work; for Bioavailability: literature reference
[3] = tested on: superactivated platelets (SAPs); assay: SAP inhibition by combinatorial drug treatment (flow cytometry of PRP); assay type: cell-based, human; settings: 50 μM; PRP 30 minutes at 37° C.; normalized relative to Control
Method: A venipuncture sample of 10 mL of blood is obtained from each patient. Of the 10 mL, a 3 mL aliquot of blood is added to a tube containing 0.5 mL of acid-citrate-dextrose solution (38 mM citric acid, 75 mM sodium citrate, 135 mM glucose) to prevent clotting. […] After centrifuging at 1100 rpm for 10 minutes at room temperature, platelet rich plasma (PRP), which is the upper layer, is removed. The PRP is transferred to a new tube, leaving about 0.5 mL above the buffy coat layer. The PRP-containing tube is incubated with 10 μL of thrombin and convulxin, two agonists that activate the platelets, for five minutes. […] APC-SA recognizes superactivated platelets that more readily bind the biotinylated fibrinogen to their surface. […]
Each sample is analyzed by a Beckman Coulter CyAn flow cytometer (Beckman Coulter, Fullerton, Calif.). Results are analyzed by the Summit program (Beckman Coulter). […] The SAPs are expressed as a percentage of the total number of events in the sample. […]
Aliquots of platelet rich plasma (PRP) were incubated with aqueous saline solutions of resveratrol only, quercetin only, naltrexone only, and with an admixture of resveratrol, quercetin and naltrexone (RQN) for a time period of 30 minutes at 37° C. […] Multi-color immunofluorescence was noted, and analyzed as described in Example 1, above.

Molecule: Dabigatran
- Thrombin % Decrease (thrombin production; 100 μM, Alzheimer's (n = 6)): −109.55%
- Thrombin % Decrease (thrombin production; 100 μM, Control (n = 6)): −101.97%
- Thrombin % Decrease (thrombin production; 100 μM, POAG (n = 6)): −100.45%
- SAP % Decrease (SAPs; 100 μM, Alzheimer's (n = 6)): −8.09%
- SAP % Decrease (SAPs; 100 μM, Control (n = 6)): −0.16%
- SAP % Decrease (SAPs; 100 μM, POAG (n = 6)): −11.21%

Molecule: Oc1ccc(/C=C/c2cc(O)cc(O)c2)cc1 [Resveratrol, 3,5,4′-trihydroxy-trans-stilbene]
- SAP % ([1]; R/Q/N 1/0/0 uM): 32.20%
- SAP % Change ([1]; R/Q/N 1/0/0 uM): −11.27%
- SAP % ([1]; R/Q/N 5/0/0 uM): 30.98%
- SAP % Change ([1]; R/Q/N 5/0/0 uM): −14.63%
- SAP % ([1]; R/Q/N 10/0/0 uM): 30.24%
- SAP % Change ([1]; R/Q/N 10/0/0 uM): −16.67%
- SAP % (POAG subject platelets; R/Q/N 1/0/0 uM): 53.30%
- SAP % Change (POAG subject platelets; R/Q/N 1/0/0 uM): −6.29%
- SAP % (POAG subject platelets; R/Q/N 5/0/0 uM): 53.78%
- SAP % Change (POAG subject platelets; R/Q/N 5/0/0 uM): −5.45%
- SAP % (POAG subject platelets; R/Q/N 10/0/0 uM): 43.53%
- SAP % Change (POAG subject platelets; R/Q/N 10/0/0 uM): −23.47%
- Half-life ([2]; in vivo): 1 to 3 h
- Bioavailability [2]: 5%^1

Molecule: O=C1CC[C@@]2(O)[C@H]3Cc4ccc(O)c5c4[C@@]2(CCN3CC2CC2)[C@H]1O5 [Naltrexone, 17-(cyclopropylmethyl)-4,5α-epoxy-3,14-dihydroxymorphinan-6-one]
- % Reduction in SAPs [3]: 52.2%
- % SAPs [3]: 47.8%
- SAP % ([1]; R/Q/N 0/0/1 uM): 30.80%
- SAP % Change ([1]; R/Q/N 0/0/1 uM): −15.13%
- SAP % ([1]; R/Q/N 0/0/10 uM): 20.77%
- SAP % Change ([1]; R/Q/N 0/0/10 uM): −42.77%
- SAP % ([1]; R/Q/N 0/0/50 uM): 18.03%
- SAP % Change ([1]; R/Q/N 0/0/50 uM): −50.32%
- SAP % (POAG subject platelets; R/Q/N 0/0/1 uM): 44.27%
- SAP % Change (POAG subject platelets; R/Q/N 0/0/1 uM): −22.17%
- SAP % (POAG subject platelets; R/Q/N 0/0/10 uM): 40.84%
- SAP % Change (POAG subject platelets; R/Q/N 0/0/10 uM): −28.20%
- SAP % (POAG subject platelets; R/Q/N 0/0/50 uM): 38.93%
- SAP % Change (POAG subject platelets; R/Q/N 0/0/50 uM): −31.56%
- Bioavailability [2]: 33%^3

Molecule: O=c1c(O)c(-c2ccc(O)c(O)c2)oc2cc(O)cc(O)c12 [Quercetin, 3,3′,4′5,7-pentahydroxy-2-phenylchromen-4-one]
- SAP % ([1]; R/Q/N 0/1/0 uM): 30.36%
- SAP % Change ([1]; R/Q/N 0/1/0 uM): −16.34%
- SAP % ([1]; R/Q/N 0/5/0 uM): 30.53%
- SAP % Change ([1]; R/Q/N 0/5/0 uM): −15.87%
- SAP % ([1]; R/Q/N 0/10/0 uM): 21.47%
- SAP % Change ([1]; R/Q/N 0/10/0 uM): −40.84%
- SAP % (POAG subject platelets; R/Q/N 0/1/0 uM): 49.18%
- SAP % Change (POAG subject platelets; R/Q/N 0/1/0 uM): −13.54%
- SAP % (POAG subject platelets; R/Q/N 0/5/0 uM): 48.25%
- SAP % Change (POAG subject platelets; R/Q/N 0/5/0 uM): −15.17%
- SAP % (POAG subject platelets; R/Q/N 0/10/0 uM): 43.27%
- SAP % Change (POAG subject platelets; R/Q/N 0/10/0 uM): −23.93%
- Bioavailability [2]: 11%^2

Molecule: CC(=O)Oc1ccccc1C(=O)O [Aspirin]
- Thrombin % Decrease (thrombin production; 100 μM, Alzheimer's (n = 6)): −75.46%
- Thrombin % Decrease (thrombin production; 100 μM, Control (n = 6)): −76.05%
- Thrombin % Decrease (thrombin production; 100 μM, POAG (n = 6)): −104.39%
- SAP % Decrease (SAPs; 100 μM, Alzheimer's (n = 6)): −17.32%
- SAP % Decrease (SAPs; 100 μM, Control (n = 6)): −17.00%
- SAP % Decrease (SAPs; 100 μM, POAG (n = 6)): −26.69%

Molecule: O=C(NC[C@H]1CN(c2ccc(N3CCOCC3=O)cc2)C(=O)O1)c1ccc(Cl)s1 [Rivaroxaban]
- Thrombin % Decrease (thrombin production; 1 μM, Alzheimer's (n = 6)): −186.56%
- Thrombin % Decrease (thrombin production; 1 μM, Control (n = 6)): −183.06%
- Thrombin % Decrease (thrombin production; 1 μM, POAG (n = 6)): −184.65%
- SAP % Decrease (SAPs; 1 μM, Alzheimer's (n = 6)): −15.63%
- SAP % Decrease (SAPs; 1 μM, Control (n = 6)): −23.38%
- SAP % Decrease (SAPs; 1 μM, POAG (n = 6)): −48.73%

Molecule: CC(C)Cc1ccc(C(C)C(=O)O)cc1 (stereo not drawn) [Ibuprofen]
- Thrombin % Decrease (thrombin production; 100 μM, Alzheimer's (n = 6)): −95.08%
- Thrombin % Decrease (thrombin production; 100 μM, Control (n = 6)): −106.45%
- Thrombin % Decrease (thrombin production; 100 μM, POAG (n = 6)): −101.37%
- SAP % Decrease (SAPs; 100 μM, Alzheimer's (n = 6)): −15.30%
- SAP % Decrease (SAPs; 100 μM, Control (n = 6)): −31.40%
- SAP % Decrease (SAPs; 100 μM, POAG (n = 6)): −16.84%
